The NIST ThermoML archive (doi:10.1016/j.jct.2005.09.003)
Numbers after ± are expanded uncertainties.

Experiments:
[1] = Liquid
[2] = refractive index (Na D-line) (dimensionless); details: 298.15 K; 101.33 kPa; Liquid; Standard Abbe refractometry

Q: For CCCCCCCC [octane], which mass density ([1]; 298.15 K, 100 kPa) is on record?
A: 698.64 ± 0.61 kg/m3

Q: What about the mass density ([1]; 298.15 K, 2130 kPa) of the same molecule?
A: 700.14 ± 0.71 kg/m3

Q: What about the mass density ([1]; 298.15 K, 4150 kPa) of the same molecule?
A: 701.87 ± 0.8 kg/m3

Q: And the mass density ([1]; 298.15 K, 6180 kPa)?
A: 703.56 ± 0.88 kg/m3

Q: What about the mass density ([1]; 298.15 K, 8210 kPa) of the same molecule?
A: 705.17 ± 0.97 kg/m3

Q: And the mass density ([1]; 298.15 K, 10230 kPa)?
A: 706.78 ± 1.1 kg/m3

Q: And the mass density ([1]; 298.15 K, 11250 kPa)?
A: 707.58 ± 1.1 kg/m3

Q: And the mass density ([1]; 298.15 K, 12260 kPa)?
A: 708.37 ± 1.1 kg/m3

Q: And the mass density ([1]; 298.15 K, 14290 kPa)?
A: 709.9 ± 1.2 kg/m3

Q: What about the mass density ([1]; 298.15 K, 16310 kPa) of the same molecule?
A: 711.41 ± 1.3 kg/m3

Q: What about the mass density ([1]; 298.15 K, 18340 kPa) of the same molecule?
A: 712.9 ± 1.4 kg/m3

Q: And the mass density ([1]; 298.15 K, 20370 kPa)?
A: 714.36 ± 1.5 kg/m3

Q: What about the mass density ([1]; 298.15 K, 22390 kPa) of the same molecule?
A: 715.78 ± 1.6 kg/m3

Q: What about the mass density ([1]; 298.15 K, 24420 kPa) of the same molecule?
A: 717.18 ± 1.6 kg/m3

Q: What about the mass density ([1]; 298.15 K, 26450 kPa) of the same molecule?
A: 718.56 ± 1.7 kg/m3

Q: What about the mass density ([1]; 298.15 K, 28470 kPa) of the same molecule?
A: 719.9 ± 1.8 kg/m3

Q: And the mass density ([1]; 298.15 K, 29490 kPa)?
A: 720.57 ± 1.8 kg/m3

Q: What about the mass density ([1]; 298.15 K, 30500 kPa) of the same molecule?
A: 721.22 ± 1.9 kg/m3

Q: And the mass density ([1]; 298.15 K, 32530 kPa)?
A: 722.53 ± 2 kg/m3

Q: And the mass density ([1]; 298.15 K, 34550 kPa)?
A: 723.82 ± 2 kg/m3

Q: And the mass density ([1]; 298.15 K, 36580 kPa)?
A: 725.06 ± 2.1 kg/m3

Q: And the mass density ([1]; 298.15 K, 38600 kPa)?
A: 726.32 ± 2.2 kg/m3

Q: What about the mass density ([1]; 298.15 K, 39620 kPa) of the same molecule?
A: 726.94 ± 2.2 kg/m3

Q: What about the mass density ([1]; 308.15 K, 100 kPa) of the same molecule?
A: 690.43 ± 0.63 kg/m3

Q: And the mass density ([1]; 308.15 K, 2130 kPa)?
A: 692.18 ± 0.73 kg/m3

Q: And the mass density ([1]; 308.15 K, 4150 kPa)?
A: 694 ± 0.82 kg/m3

Q: And the mass density ([1]; 308.15 K, 6180 kPa)?
A: 695.79 ± 0.9 kg/m3

Q: What about the mass density ([1]; 308.15 K, 8210 kPa) of the same molecule?
A: 697.53 ± 0.99 kg/m3

Q: And the mass density ([1]; 308.15 K, 10230 kPa)?
A: 699.24 ± 1.1 kg/m3

Q: And the mass density ([1]; 308.15 K, 11250 kPa)?
A: 700.07 ± 1.1 kg/m3

Q: What about the mass density ([1]; 308.15 K, 12260 kPa) of the same molecule?
A: 700.88 ± 1.2 kg/m3

Q: What about the mass density ([1]; 308.15 K, 14290 kPa) of the same molecule?
A: 702.55 ± 1.2 kg/m3

Q: What about the mass density ([1]; 308.15 K, 16310 kPa) of the same molecule?
A: 704.13 ± 1.3 kg/m3

Q: What about the mass density ([1]; 308.15 K, 18340 kPa) of the same molecule?
A: 705.71 ± 1.4 kg/m3

Q: What about the mass density ([1]; 308.15 K, 20370 kPa) of the same molecule?
A: 707.23 ± 1.5 kg/m3

Q: What about the mass density ([1]; 308.15 K, 22390 kPa) of the same molecule?
A: 708.76 ± 1.6 kg/m3

Q: And the mass density ([1]; 308.15 K, 24420 kPa)?
A: 710.22 ± 1.7 kg/m3

Q: And the mass density ([1]; 308.15 K, 26450 kPa)?
A: 711.66 ± 1.8 kg/m3

Q: What about the mass density ([1]; 308.15 K, 28470 kPa) of the same molecule?
A: 713.09 ± 1.8 kg/m3

Q: And the mass density ([1]; 308.15 K, 29490 kPa)?
A: 713.77 ± 1.9 kg/m3

Q: What about the mass density ([1]; 308.15 K, 30500 kPa) of the same molecule?
A: 714.47 ± 1.9 kg/m3

Q: What about the mass density ([1]; 308.15 K, 32530 kPa) of the same molecule?
A: 715.84 ± 2 kg/m3

Q: And the mass density ([1]; 308.15 K, 34550 kPa)?
A: 717.18 ± 2.1 kg/m3

Q: What about the mass density ([1]; 308.15 K, 36580 kPa) of the same molecule?
A: 718.5 ± 2.2 kg/m3

Q: What about the mass density ([1]; 308.15 K, 38600 kPa) of the same molecule?
A: 719.82 ± 2.2 kg/m3

Q: And the mass density ([1]; 308.15 K, 39620 kPa)?
A: 720.45 ± 2.3 kg/m3

Q: And the mass density ([1]; 318.15 K, 100 kPa)?
A: 682.47 ± 0.65 kg/m3

Q: And the mass density ([1]; 318.15 K, 2130 kPa)?
A: 684.48 ± 0.74 kg/m3

Q: And the mass density ([1]; 318.15 K, 4150 kPa)?
A: 686.45 ± 0.83 kg/m3

Q: What about the mass density ([1]; 318.15 K, 6180 kPa) of the same molecule?
A: 688.29 ± 0.92 kg/m3

Q: And the mass density ([1]; 318.15 K, 8210 kPa)?
A: 690.17 ± 1 kg/m3

Q: And the mass density ([1]; 318.15 K, 10230 kPa)?
A: 691.97 ± 1.1 kg/m3

Q: And the mass density ([1]; 318.15 K, 11250 kPa)?
A: 692.85 ± 1.1 kg/m3

Q: What about the mass density ([1]; 318.15 K, 12260 kPa) of the same molecule?
A: 693.77 ± 1.2 kg/m3

Q: What about the mass density ([1]; 318.15 K, 14290 kPa) of the same molecule?
A: 695.49 ± 1.3 kg/m3

Q: And the mass density ([1]; 318.15 K, 16310 kPa)?
A: 697.2 ± 1.4 kg/m3

Q: And the mass density ([1]; 318.15 K, 18340 kPa)?
A: 698.86 ± 1.5 kg/m3

Q: And the mass density ([1]; 318.15 K, 20370 kPa)?
A: 700.47 ± 1.5 kg/m3

Q: And the mass density ([1]; 318.15 K, 22390 kPa)?
A: 702.07 ± 1.6 kg/m3

Q: What about the mass density ([1]; 318.15 K, 24420 kPa) of the same molecule?
A: 703.61 ± 1.7 kg/m3

Q: What about the mass density ([1]; 318.15 K, 26450 kPa) of the same molecule?
A: 705.13 ± 1.8 kg/m3

Q: And the mass density ([1]; 318.15 K, 28470 kPa)?
A: 706.66 ± 1.9 kg/m3

Q: And the mass density ([1]; 318.15 K, 29490 kPa)?
A: 707.38 ± 1.9 kg/m3

Q: What about the mass density ([1]; 318.15 K, 30500 kPa) of the same molecule?
A: 708.13 ± 2 kg/m3

Q: And the mass density ([1]; 318.15 K, 32530 kPa)?
A: 709.54 ± 2 kg/m3

Q: And the mass density ([1]; 318.15 K, 34550 kPa)?
A: 710.96 ± 2.1 kg/m3

Q: And the mass density ([1]; 318.15 K, 36580 kPa)?
A: 712.33 ± 2.2 kg/m3

Q: And the mass density ([1]; 318.15 K, 38600 kPa)?
A: 713.68 ± 2.3 kg/m3

Q: What about the mass density ([1]; 318.15 K, 39620 kPa) of the same molecule?
A: 714.38 ± 2.3 kg/m3

Q: And the mass density ([1]; 328.15 K, 100 kPa)?
A: 674.53 ± 0.66 kg/m3

Q: What about the mass density ([1]; 328.15 K, 2130 kPa) of the same molecule?
A: 676.49 ± 0.76 kg/m3

Q: And the mass density ([1]; 328.15 K, 4150 kPa)?
A: 678.56 ± 0.85 kg/m3

Q: And the mass density ([1]; 328.15 K, 6180 kPa)?
A: 680.59 ± 0.95 kg/m3

Q: What about the mass density ([1]; 328.15 K, 8210 kPa) of the same molecule?
A: 682.57 ± 1 kg/m3

Q: And the mass density ([1]; 328.15 K, 10230 kPa)?
A: 684.51 ± 1.1 kg/m3

Q: What about the mass density ([1]; 328.15 K, 11250 kPa) of the same molecule?
A: 685.44 ± 1.2 kg/m3

Q: What about the mass density ([1]; 328.15 K, 12260 kPa) of the same molecule?
A: 686.38 ± 1.2 kg/m3

Q: And the mass density ([1]; 328.15 K, 14290 kPa)?
A: 688.23 ± 1.3 kg/m3

Q: And the mass density ([1]; 328.15 K, 16310 kPa)?
A: 690.03 ± 1.4 kg/m3

Q: What about the mass density ([1]; 328.15 K, 18340 kPa) of the same molecule?
A: 691.76 ± 1.5 kg/m3

Q: And the mass density ([1]; 328.15 K, 20370 kPa)?
A: 693.5 ± 1.6 kg/m3

Q: And the mass density ([1]; 328.15 K, 22390 kPa)?
A: 695.17 ± 1.7 kg/m3

Q: And the mass density ([1]; 328.15 K, 24420 kPa)?
A: 696.82 ± 1.8 kg/m3

Q: And the mass density ([1]; 328.15 K, 26450 kPa)?
A: 698.41 ± 1.8 kg/m3

Q: What about the mass density ([1]; 328.15 K, 28470 kPa) of the same molecule?
A: 699.98 ± 1.9 kg/m3

Q: And the mass density ([1]; 328.15 K, 29490 kPa)?
A: 700.75 ± 2 kg/m3

Q: And the mass density ([1]; 328.15 K, 30500 kPa)?
A: 701.53 ± 2 kg/m3

Q: And the mass density ([1]; 328.15 K, 32530 kPa)?
A: 703.01 ± 2.1 kg/m3

Q: What about the mass density ([1]; 328.15 K, 34550 kPa) of the same molecule?
A: 704.5 ± 2.2 kg/m3

Q: And the mass density ([1]; 328.15 K, 36580 kPa)?
A: 705.96 ± 2.2 kg/m3

Q: What about the mass density ([1]; 328.15 K, 38600 kPa) of the same molecule?
A: 707.36 ± 2.3 kg/m3

Q: And the mass density ([1]; 328.15 K, 39620 kPa)?
A: 708.06 ± 2.4 kg/m3

Q: And the refractive index [2]?
A: 1.395 ± 0.0004
